Assay [1] deals with T1, CCK-2 receptor (Cavia porcellus, UniProt H0VZC5).
T1 construct: The incubation of the cerebral membranes together with the radioactive tracers and the compounds under study; from tissue; host or cells: cerebral cortex membranes of male albino Hartley guinea pigs
T1 sequence (H0VZC5 1-426): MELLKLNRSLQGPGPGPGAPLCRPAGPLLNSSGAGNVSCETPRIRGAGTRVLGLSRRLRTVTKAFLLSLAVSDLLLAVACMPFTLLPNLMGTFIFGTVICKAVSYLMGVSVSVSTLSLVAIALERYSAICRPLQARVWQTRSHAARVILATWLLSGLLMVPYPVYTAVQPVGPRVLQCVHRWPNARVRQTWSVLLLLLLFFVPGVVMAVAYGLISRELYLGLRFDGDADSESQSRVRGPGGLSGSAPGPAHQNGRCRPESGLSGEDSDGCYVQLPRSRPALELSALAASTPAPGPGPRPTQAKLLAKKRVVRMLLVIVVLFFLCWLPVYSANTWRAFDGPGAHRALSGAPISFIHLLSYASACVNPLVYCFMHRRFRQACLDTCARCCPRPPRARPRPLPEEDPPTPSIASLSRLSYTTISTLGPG
Briefly: Inhibition of the binding of [125I]-BH-CCK-8 to the cortical membrane of guinea pigs. More on the design: species or system guinea pig. The conditions noted are these: 120 minutes at 25° C.; 25 pM marked binder; at least 3 tests. As for the experimental part: (§1) For this purpose binding tests were performed on cerebral cortex of male albino guinea pigs outbred from the Hartley strain, using as marked binder the [^125I]-BH-CCK-8 sulphate, according to the procedure described by Makovec F. [J. Med. Chem. 35, (1992),28].
(§2) The incubation of the cerebral membranes together with the radioactive tracers and the compounds under study was effected on multi-well plates for 120 minutes at 25° C. Each well contained membrane corresponding to about 0.5 mg of proteins/ml and 25 pM of marked binder in a total volume of 250 micro litres. The specific binding was determined as the difference between the binding in the absence and in the presence of CCK-8, 1.10^−6M. At the end of the incubation a rapid filtration of the plate was performed under vacuum and the radioactivity of the individual filters extracted from the wells was measured with a γ-emission counter. The results obtained are shown in Table 3, in which the tested compounds are indicated, the IC50 calculated with the regression method on a set of at least 3 tests for each compound studied and an index derived from the ratio of the affinity obtained for the two types of receptor CCK-2 and CCK-1.

Assay [2] has as its system CCK-2 receptor. The assay is described as above. Also on record: species or system guinea pig. The conditions noted are these: IC50 CCK-2 (guinea pig cortex) / IC50 CCK-1 (rat pancreatic acini, Table 2). As for the experimental part:
as §1, §2

In the next assay the target is T2, CCK-1 receptors (Rattus norvegicus, UniProt P30551).
T2 construct: The pancreatic acini obtained from the outbred male rat pancreas of the Sprague Dawley strain; from tissue; host or cells: isolated pancreatic acini of male Sprague Dawley rats
T2 sequence (P30551 1-444): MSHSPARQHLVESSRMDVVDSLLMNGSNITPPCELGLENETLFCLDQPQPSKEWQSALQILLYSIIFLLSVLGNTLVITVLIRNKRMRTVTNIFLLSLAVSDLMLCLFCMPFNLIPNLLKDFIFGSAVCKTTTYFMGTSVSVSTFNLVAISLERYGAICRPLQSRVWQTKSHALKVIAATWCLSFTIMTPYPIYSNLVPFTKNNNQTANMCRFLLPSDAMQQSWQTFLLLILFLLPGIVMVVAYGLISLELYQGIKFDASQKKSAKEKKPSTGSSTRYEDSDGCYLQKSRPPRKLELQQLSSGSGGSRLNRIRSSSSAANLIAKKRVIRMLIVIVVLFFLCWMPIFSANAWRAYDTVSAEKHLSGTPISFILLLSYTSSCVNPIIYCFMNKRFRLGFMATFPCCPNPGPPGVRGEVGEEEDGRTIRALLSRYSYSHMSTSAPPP
Briefly: Inhibition of binding of [125I]-BH-CCK-8 to isolated rat pancreatic acini. The conditions noted are these: for IC50: 30 minutes at 37° C., at least 3 experiments, read-out: IC50, inhibition of binding of [125I]-BH-CCK-8 to isolated rat pancreatic acini. As for the experimental part:
The pancreatic acini obtained from the outbred male rat pancreas of the Sprague Dawley strain, were incubated in the presence of radioactive tracers and the compound studied for 30 minutes at 37° C. After having discarded the supernatant, the radioactivity associated with the pellet was determined with a liquid scintillator. The specific binding was determined as the difference between the binding in the absence and in the presence of CCK-8, 1.10^−6M. […] The values of IC50 reported were calculated with the […] of a set of at least 3 experiences for each compound studied.

Results on 44 compounds are retold here after US7294648B2, “Anthranyl derivatives having an anticholecystokinin activity (anti-cck-1), a process for their preparation, and pharmaceutical use thereof” (Rottapharm S.p.A., priority 2002, dated 2007).

In the case of `O=C(Nc1ccccc1C(=O)NC(Cc1ccccc1)C(=O)O)c1cc2cc(F)ccc2[nH]1` (stereo not shown) [Compound 6], the IC50 (as a rule, the point on the concentration scale where inhibition reaches its midpoint) at CCK-2 receptor [1] was 10600 nM; on CCK-1 receptors, 60 nM. The “index derived from the ratio of the affinity obtained for the two types of receptor CCK-2 and CCK-1” value (shortened to “index derived from the ratio”) in the assay with CCK-2 receptor [2] is 176.6.
As for `Cc1ccccc1CCC(NC(=O)c1ccccc1NC(=O)c1cc2ccccc2n1C)C(=O)O` (stereo not shown) [Compound 27], the half-maximal inhibitory concentration (IC50) on CCK-1 receptors was found to be 30 nM.
Turning to `CCC(CC)CC(NC(=O)c1ccccc1NC(=O)c1cc2ccccc2[nH]1)C(=O)O` (stereo not shown) [Compound 46], the values for the concentration for half-maximal inhibition (IC50) at CCK-2 receptor [1] and on CCK-1 receptors were 2670 nM and 30 nM, respectively. The “index derived from the ratio” value in the assay with CCK-2 receptor [2] is 89.
As to `O=C(Nc1ccccc1C(=O)NC(CCc1ccccc1[N+](=O)[O-])C(=O)O)c1cc2ccccc2[nH]1` (stereo not shown) [Compound 28], at CCK-1 receptors, the IC50 worked out at 120 nM.
Take `CCCC(NC(=O)c1ccccc1NC(=O)c1cc2ccccc2n1C)C(=O)O` (stereo not shown) [Compound 36]: on CCK-1 receptors, the IC50 turned out to be 210 nM.
For the compound `O=C(Nc1ccccc1C(=O)NC(CCc1ccc([N+](=O)[O-])cc1)C(=O)O)c1cc2ccccc2[nH]1` (stereo not shown) [Compound 29], the IC50 on CCK-1 receptors turned out to be 120 nM.
Take `O=C(Nc1ccccc1C(=O)NC(Cc1cccc(Cl)c1)C(=O)O)c1cc2ccccc2[nH]1` (stereo not shown) [Compound 14]: the IC50 at CCK-1 receptors is 280 nM.
Consider `COc1ccccc1CCC(NC(=O)c1ccccc1NC(=O)c1cc2cc(F)ccc2[nH]1)C(=O)O` (stereo not shown) [Compound 32], for which the concentration for half-maximal inhibition (IC50) was 5680 nM on CCK-2 receptor [1] and 9 nM at CCK-1 receptors. The “index derived from the ratio” value in the assay with CCK-2 receptor [2] was determined as 631.1. Moreover, on CCK-1 receptors (summary of Table 2), the “affinity for the CCK-1 receptors of the pancreatic acini of rat, in words” value is reported as “nanomolar level”.
Consider `O=C(Nc1ccccc1C(=O)NC(CCCC1CCCCC1)C(=O)O)c1cc2ccccc2[nH]1` (stereo not shown) [Compound 50], for which the 50% inhibitory concentration (IC50) at CCK-1 receptors turned out to be 170 nM.
Same read-out and setting: the same measure for `O=C(NC(Cc1ccccc1)C(=O)O)c1ccccc1NC(=O)c1c[nH]c2ccccc12` (stereo not shown) [Compound 55]: 1950 nM; for `CCCCCCCC(NC(=O)c1ccccc1NC(=O)c1cc2ccccc2[nH]1)C(=O)O` (stereo not shown) [Compound 40]: 240 nM.
On the same count and under the same terms, the same measure for `Cc1ccccc1CC(NC(=O)c1ccccc1NC(=O)c1cc2ccccc2[nH]1)C(=O)O` (stereo not shown) [Compound 11]: 160 nM; for `O=C(Nc1ccccc1C(=O)NC(Cc1ccccc1)C(=O)O)c1cc2ccccc2s1` (stereo not shown) [Compound 10]: 780 nM; for `CCCCC(NC(=O)c1ccccc1NC(=O)c1cc2ccccc2n1C)C(=O)O` (stereo not shown) [Compound 37]: 170 nM.
Same read-out and setting: the same measure for `O=C(Nc1ccccc1C(=O)NC(Cc1ccccc1Cl)C(=O)O)c1cc2ccccc2[nH]1` (stereo not shown) [Compound 13]: 270 nM; for `O=C(Nc1ccccc1C(=O)NC(Cc1ccc([N+](=O)[O-])cc1)C(=O)O)c1cc2ccccc2[nH]1` (stereo not shown) [Compound 18]: 430 nM.
Take `O=C(Nc1ccccc1C(=O)NC(Cc1ccccc1)C(=O)O)c1cc2ccc(F)cc2[nH]1` (stereo not shown) [Compound 7]: on CCK-1 receptors, the IC50 turned out to be 160 nM.
The same measure, in the same setting: the same measure for `CC(C)CCC(NC(=O)c1ccccc1NC(=O)c1cc2ccccc2[nH]1)C(=O)O` (stereo not shown) [Compound 43]: 80 nM; for `O=C(Nc1ccccc1C(=O)N[C@@H](Cc1ccccc1)C(=O)O)c1cc2ccccc2[nH]1` [Compound 3, 2(S)-{2-[(1H-indol-2-carbonyl)amino]-benzoylamino}-3-phenyl-propionic acid]: 7130 nM.
Consider `CC(C)CC(NC(=O)c1ccccc1NC(=O)c1cc2ccccc2[nH]1)C(=O)O` (stereo not shown) [Compound 42], for which, on CCK-1 receptors, the concentration for half-maximal inhibition (IC50) was 60 nM.
On the same count and under the same terms, the same measure for `COc1cccc(CC(NC(=O)c2ccccc2NC(=O)c2cc3ccccc3[nH]2)C(=O)O)c1` (stereo not shown) [Compound 16]: 240 nM; for `O=C(Nc1ccccc1C(=O)NC(Cc1ccccc1)C(=O)O)c1cc2cccc(F)c2[nH]1` (stereo not shown) [Compound 8]: 90 nM.
Consider `O=C(Nc1ccccc1C(=O)NC(CSC12CC3CC(CC(C3)C1)C2)C(=O)O)c1cc2ccccc2[nH]1` (stereo not shown) [Compound 53], for which the concentration for half-maximal inhibition (IC50) at CCK-1 receptors is 30 nM.
Same read-out and setting: the same measure for `CC(NC(=O)c1ccccc1NC(=O)c1cc2ccccc2[nH]1)C(=O)O` (stereo not shown) [Compound 34]: 1960 nM.
As to `CC(C)CCCC(NC(=O)c1ccccc1NC(=O)c1cc2ccccc2[nH]1)C(=O)O` (stereo not shown) [Compound 44], on CCK-1 receptors, the IC50 was found to be 40 nM.
Still for that read-out and setting: the same measure for `O=C(Nc1ccccc1C(=O)NC(C(=O)O)c1ccccc1)c1cc2ccccc2[nH]1` (stereo not shown) [Compound 33]: 260 nM; for `O=C(Nc1ccccc1C(=O)N[C@H](Cc1ccccc1)C(=O)O)c1cc2ccccc2[nH]1` [Compound 2, 2 (R)-{2-[(1H-indol-2-carbonyl)amino]-benzoylamino}-3-phenyl-propionic acid]: 110 nM; for `O=C(Nc1ccccc1C(=O)NC(Cc1ccccc1)C(=O)O)c1cc2ccccc2o1` (stereo not shown) [Compound 9]: 520 nM.
On to `O=C(Nc1ccccc1C(=O)NC(CC1CCCCC1)C(=O)O)c1cc2ccccc2[nH]1` (stereo not shown) [Compound 48], for which the IC50 on CCK-2 receptor [1] came to 1220 nM; at CCK-1 receptors it was 20 nM. Moreover, in the assay on CCK-2 receptor [2], the “index derived from the ratio” value was determined as 61.
Turning to `CSCCC(NC(=O)c1ccccc1NC(=O)c1cc2ccccc2[nH]1)C(=O)O` (stereo not shown) [Compound 51], at CCK-1 receptors, the concentration for half-maximal inhibition (IC50) came to 40 nM.
As for `CC(C)C(NC(=O)c1ccccc1NC(=O)c1cc2ccccc2[nH]1)C(=O)O` (stereo not shown) [Compound 41], the half-inhibitory concentration (IC50) at CCK-2 receptor [1] stood at 27400 nM; on CCK-1 receptors, 200 nM. Further, the “index derived from the ratio” value in the assay on CCK-2 receptor [2] is recorded as 137.
Take `O=C(Nc1ccccc1C(=O)NC(Cc1c(Cl)cccc1Cl)C(=O)O)c1cc2ccccc2[nH]1` (stereo not shown) [Compound 15]: the half-maximal inhibitory concentration (IC50) on CCK-1 receptors was 1410 nM.
With `O=C(Nc1ccccc1C(=O)N[C@@H](CCc1ccccc1)C(=O)O)c1cc2ccccc2[nH]1` [Compound 22], the half-inhibitory concentration (IC50) at CCK-1 receptors worked out at 190 nM.
`O=C(Nc1ccccc1C(=O)NC(Cc1ccc(F)cc1)C(=O)O)c1cc2ccccc2[nH]1` (stereo not shown) [Compound 19]: the 50% inhibitory concentration (IC50) on CCK-1 receptors is 180 nM.
In the case of `O=C(Nc1ccccc1C(=O)NC(Cc1ccccc1)C(=O)O)c1cc2ccccc2[nH]1` (racemic) [Compound 1, 2 (R,S)-{2-[(1H-indol-2-carbonil)amino]-benzoilamino}-3-phnyl-propionic acid], the IC50 on CCK-1 receptors was determined as 240 nM.
As to `O=C(Nc1ccccc1C(=O)NC(CCC1CCCCC1)C(=O)O)c1cc2ccccc2[nH]1` (stereo not shown) [Compound 49], the IC50 on CCK-1 receptors was found to be 40 nM.
On the same count and under the same terms, the figure for `O=C(Nc1ccccc1C(=O)NC(CSc1ccccc1)C(=O)O)c1cc2ccccc2[nH]1` (stereo not shown) [Compound 52] is 620 nM.
With `O=C(Nc1ccccc1C(=O)NC(CCCc1ccccc1)C(=O)O)c1cc2ccccc2[nH]1` (stereo not shown) [Compound 24], the concentration for half-maximal inhibition (IC50) on CCK-1 receptors was 90 nM.
On the same count and under the same terms, the figure for `Cc1ccc(CC(NC(=O)c2ccccc2NC(=O)c2cc3ccccc3[nH]2)C(=O)O)cc1` (stereo not shown) [Compound 12] is 370 nM; for `CCC(NC(=O)c1ccccc1NC(=O)c1cc2ccccc2n1C)C(=O)O` (stereo not shown) [Compound 35] it is 3080 nM.
The same measure, in the same setting: the same measure for `Cn1c(C(=O)Nc2ccccc2C(=O)NC(Cc2ccccc2)C(=O)O)cc2ccccc21` (stereo not shown) [Compound 5]: 170 nM; for `CC(C)CCCCC(NC(=O)c1ccccc1NC(=O)c1cc2ccccc2[nH]1)C(=O)O` (stereo not shown) [Compound 45]: 140 nM.
Turning to `O=C(Nc1ccccc1C(=O)NC(Cc1ccccc1[N+](=O)[O-])C(=O)O)c1cc2ccccc2[nH]1` (stereo not shown) [Compound 17], the IC50 at CCK-1 receptors worked out at 160 nM.
With `O=C(Nc1ccc(Cl)cc1C(=O)NC(Cc1ccccc1)C(=O)O)c1cc2ccccc2[nH]1` (stereo not shown) [Compound 4], at CCK-1 receptors, the IC50 was 410 nM.
